Ends that are not written are not given here.
Columns and labels:
A. baumannii ATCC #19606 = assay type: cell-based, Acinetobacter baumannii
Text: (§1) As shown in the table below, many drug-resistant pathogens including multidrug-resistant Acinetobacter baumannii (clinical isolates) were susceptible to the bactericidal activity of the newly developed antimicrobial peptides. […] This is shown by their lower MIC and MBC against a number of antibiotic-resistant bacteria including methicillin-resistant Staphylococcus aureus, vancomycin-resistant Enterococci, and multidrug-resistant Acinetobacter baumannii. Many of these resistant strains are involved in nosocomial infections, which affect the immunocompromised and the elderly individuals with weakened defenses. The tests were done in a broth microdilution assay as described in our earlier publication (Concannon et al., 2003).

A. baumannii WRAMC #17 = assay type: cell-based, Acinetobacter baumannii
Text: as §1

A. baumannii WRAMC #4 = assay type: cell-based, Acinetobacter baumannii
Text: as §1

A. baumannii WRAMC #14 = assay type: cell-based, Acinetobacter baumannii
Text: as §1

A. baumannii WRAMC #5 = assay type: cell-based, Acinetobacter baumannii
Text: as §1

A. baumannii WRAMC #15 = assay type: cell-based, Acinetobacter baumannii
Text: as §1

A. baumannii WRAMC #13 = assay type: cell-based, Acinetobacter baumannii
Text: as §1

A. baumannii WRAMC #2 = assay type: cell-based, Acinetobacter baumannii
Text: as §1

A. baumannii WRAMC #16 = assay type: cell-based, Acinetobacter baumannii
Text: as §1

A. baumannii WRAMC #19 = assay type: cell-based, Acinetobacter baumannii
Text: as §1

A. baumannii WRAMC #11 = assay type: cell-based, Acinetobacter baumannii
Text: as §1

A. baumannii WRAMC #8 = assay type: cell-based, Acinetobacter baumannii
Text: as §1

A. baumannii WRAMC #18 = assay type: cell-based, Acinetobacter baumannii
Text: as §1

[1] = Interaction (adsorption) with hydroxyapatite discs in artificial saliva; assay type: physicochemical; conditions: KSL 0.5 mg/ml, 8 untreated HA discs, 37° C.
Method: Affinity of KSL to tooth-like materials was assessed by allowing the KSL to interact with HA discs (Size: 0.38″ diameter×0.06-0.08″ thick) in artificial saliva at 37° C. To simulate the tooth surface, the HA discs were pretreated in filtered human saliva for 2 hours (4 HA discs/4 mL of human saliva). Whole human saliva was collected from three healthy male donors in the morning prior to breakfast. After collection, the saliva was immediately centrifuged at 12,000 rpm for 20 min and the supernatant was filter through a 0.45 μm membrane filter. The HA discs, after conditioning with human saliva, were rinsed with artificial saliva and added to 4 ml of KSL solutions (0.5 mg/ml in artificial saliva) at 37° C. As a control, untreated HA discs were directly added to KSL solutions at 37° C. The sample vials were mounted on a rotary wheel with vertical rotation at a speed of 18 cycles/min. Samples were removed at predetermined times, centrifuged and the supernatants were analyzed by RP-HPLC.

physchem = assay type: physicochemical; conditions: for half-life at 200 μg/ml: buffer
Method: KSL was analyzed by RP-HPLC using a Prosphere C-18 analytical column (4.6×250 mm, Alltech, Deerfield, Ill.) with a Prosphere C-18 guard column (4.6×7.5 mm, Alltech, Deerfield, Ill.). A gradient elution was performed with mobile phase A (0.1% TFA in water) and mobile phase B (0.1% TFA in acetonitrile). KSL was eluted with a linear gradient from 80:20 to 70:30 (mobile phase A:B) for 8 min at a flow rate of 1.0 ml/min. Total run time was 16 min and the injection volume was 40 μl. Chromatograms were recorded by UV detection at 215 nm.
Test solutions of KSL were prepared using a stock peptide solution of 10 mg/ml in deionized water. The degradation of KSL peptide was investigated in sodium acetate (pH 4), sodium phosphate (pH 7.4) and sodium borate (pH 9) buffers at 0.1 M buffer concentration. Each buffer solution containing 200 μg/ml of KSL was incubated in a temperature-controlled oven at 25, 37 and 55° C., respectively. Samples were taken at pre-determined times and analyzed under HPLC conditions described above. The stability of KSL was studied at 37° C. in artificial saliva over a three day period. Artificial saliva was used in the in vitro release studies in an attempt to simulate actual conditions of use. The ingredients of the artificial saliva were as follows: sodium chloride, 0.844 g; potassium chloride, 1.200 g; calcium chloride dihydrate, 0.193 g; magnesium chloride hexahydrate, 0.111 g; potassium phosphate dibasic, 0.342 g; water to make to 1000 ml. The pH was adjusted with hydrochloric acid solution to pH 5.7±0.1 [26].

## KKVVFKVKFK-NH2 [KSL, Lys-Lys-Val-Val-Phe-Lys-Val-Lys-Phe-Lys-NH2]
A. baumannii ATCC #19606
  MBC: 200 µg/mL
  MIC: 100 µg/mL
A. baumannii WRAMC #17
  MBC: 100 µg/mL
A. baumannii WRAMC #4
  MBC: 25 µg/mL
  MIC: 12.5 µg/mL
A. baumannii WRAMC #14
  MBC: 100 µg/mL
A. baumannii WRAMC #5
  MBC: 50 µg/mL
A. baumannii WRAMC #15
  MBC: >200 µg/mL
  MIC: 100 µg/mL
A. baumannii WRAMC #13
  MBC: 200 µg/mL
  MIC: 50 µg/mL
A. baumannii WRAMC #2
  MBC: 100 µg/mL
A. baumannii WRAMC #16
  MBC: 25 µg/mL
A. baumannii WRAMC #19
  MBC: 50 µg/mL
A. baumannii WRAMC #11
  MBC: 200 µg/mL
  MIC: 100 µg/mL
A. baumannii WRAMC #8
  MBC: 100 µg/mL
A. baumannii WRAMC #18
  MBC: 200 µg/mL
  MIC: 50 µg/mL
[1]
  KSL adsorbed to HA discs: approximately 20%
  time to adsorption equilibrium: ≤ 5 min
physchem; pH 4
  half-life at 200 μg/ml: 165 days
  Activation energy (Ea) of degradation: 6.7 kcal/mol
physchem; pH 7.4
  half-life at 200 μg/ml: 13.8 days
physchem; pH 9
  half-life at 200 μg/ml: 4.7 days
